Experiment [1] concerns AML3, U937, LP1 and MY5 cells. The experiment can be described thus: Cell cycle analysis (PI staining and flow cytometry). Format: cell-based. The following applies: low micromolar concentrations. Here is the method: A) Effect of increasing concentrations of clioquinol on LP1 and MY5 multiple myeloma cells at twenty hours after clioquinol treatment; determined by SDS-PAGE immunoblotting. B) Effect of increasing concentrations of clioquinol on the G0/G1 ratio in AML3, U937, LP1 and MY5 cells at twenty hours after clioquinol treatment; determined by PI staining and flow cytometry. Cells were harvested, washed with cold PBS, suspended in 70% cold ethanol and incubated overnight at −20° C. Cells were then treated with 100 ng/ml of DNase-free RNase (InvitroGen) at 37° C. for 30 min, washed with cold PBS, and resuspended in PBS with 50 μg/ml of propidium iodine. DNA content was analyzed by flow cytometry (FACSCalibur, Becton Dickinson, Fla., USA). The percentage of cells in each phase of the cell cycle was calculated with ModiFit software (Becton Dickinson).
(In flow cytometry, cells or beads pass a laser one at a time.)

Experiment [2] relates to MDAY-D2 murine leukemia cells. Here is the method: DBA-2 mice were injected intraperitoneally with MDAY-D2 murine leukemia cells. Mice were then treated twice daily by oral gavage with clioquinol (100 mg/kg) dissolved in intralipid or intralipid control. Ten days after treatment, mice were sacrificed, the intraperitoneal tumor excised, and the weight and volume of the tumor measured.
MDAY-D2 leukemia cells were injected intraperitoneally into DBA2 mice. Mice were then treated twice daily with oral clioquinol (100 mg/kg) for 10 days. Ten days after treatment, mice were sacrificed and the weight and volume of the intraperitoneal tumor was measured (FIG. 7). […] K562 leukemia cells were injected subcutaneous into sublethally irradiated […] mice. The clioquinol treatment was initiated when tumors reached volumes of 200 mm^3 at which time mice were randomized to receive 100 mg/kg of clioquinol (treated group) or buffer control (untreated group) for 5 of 7 days. Caliper measurements were performed twice weekly to estimate tumor volume and differences compared between treated and untreated groups.

Experiment [3] deals with chymotrypsin-like activity of the proteasome. Put plainly: Proteasome activity after treatment of intact cell lines. The conditions noted are these: intact leukemia and myeloma cell lines. The format is cell-based. Here is the method: A) Proteasome activity of MDAY-D2 and JJN3 cellular extracts after two hours of treatment with clioquinol (CQ), CuCl2 (Cu), or an equimolar concentration of CQ and Cu. After treatment, the preferential chymotrypsin-like substrate Suc-LLVY-AMC was added and the rate of free AMC was measured over time with a florescent spectrophotometric plate reader (excitation=380 nm, emission=460 nm). B) Proteasome activity of intact MDAY-D2 and JJN3 cells after two hours of treatment with clioquinol (CQ), CuCl2 (Cu), or an equimolar concentration of CQ and Cu. After treatment, the preferential chymotrypsin-like substrate Suc-LLVY-AMC was added and the rate of free AMC was measured over time with a florescent spectrophotometric plate reader (excitation=380 nm, emission=460 nm). Cellular proteins were extracted from cells with lysis buffer (50 mM HEPES pH 7.5, 150 mM NaCl, 2 mM ATP, and 1% Triton X-100). The chymotrypsin-like activity of the proteasome was measured by incubating equal amounts of protein with the preferential chymotrypsin-like substrate Suc-LLVY-AMC in assay buffer (50 mM Tris-HCl, pH 7.5, 150 mM NaCl) for two hours. After incubation, […] and the rate of free AMC was measured over time with a florescent spectrophotometric plate reader (excitation=380 nm, emission=460 nm). […]

The next experiment concerns myeloma cell lines. The experiment can be described thus: Cell viability (MTS assay), myeloma cell lines. Format: cell-based. The following applies: 12/14 myeloma cell lines, forty-eight hours; read-out: IC50 (cell death). The method, then:
Cell viability of leukemia, myeloma, solid tumor and primary cells forty-eight hours after clioquinol treatment by MTS assay. Cell viability was assessed with the CellTiter96® Aqueous Non-Radioactive Assay kit according to manufactures' instructions (Promega). Apoptosis was measured by flow cytometry to detect cell surface Annexin V expression and propidium iodide (PI) uptake (Biovision, Mountain View, Calif., USA) as previously described (20) The inventors tested the effects of clioquinol on the viability of acute leukemia (n=7), myeloma (n=14), and solid tumor (n=5) cell lines as well as primary AML samples (n=6) and primary normal hematopoietic cells (n=3). Forty-eight hours after incubation, clioquinol induced cell death in 6/7 AML, 12/14 myeloma, 0/5 solid tumor, […] and 0/3 normal hematopoietic cells with an IC50 <20 μM (FIG. 5). Of note, after oral administration of clioquinol, trough serum concentrations of 20 μM can be achieved in patients (32).
On the technique in general: Formazan colour is commonly taken as a measure of viable cells.

The test system of experiment [4] is proteasome in primary AML cells. The experiment can be described thus: Proteasome activity in primary AML cells. The format is cell-based, human. The method, then: Proteasome activity of primary acute myeloid leukemia (AML) blasts or normal peripheral blood stem cells (PBSC) after twenty hours of treatment with clioquinol (CQ), or an equimolar concentration of […] and CuCl2 (Cu). After treatment, the preferential chymotrypsin-like substrate Suc-LLVY-AMC was added and the rate of free AMC was measured over time with a florescent spectrophotometric plate reader (excitation=380 nm, emission=460 nm). Cellular proteins were extracted from cells with lysis buffer (50 mM HEPES pH 7.5, 150 mM NaCl, 2 mM ATP, and 1% Triton X-100). The chymotrypsin-like activity of the proteasome was measured by incubating equal amounts of protein with the preferential chymotrypsin-like substrate Suc-LLVY-AMC in assay buffer (50 mM Tris-HCl, pH 7.5, 150 mM NaCl) for two hours. After incubation, […] and the rate of free AMC was measured over time with a florescent spectrophotometric plate reader (excitation=380 nm, emission=460 nm). The inventors examined the effect of clioquinol and copper on primary AML cells and normal hematopoietic cells. Primary AML were obtained from the peripheral blood of patients with AML. Normal hematopoietic stem cells (PBSC) were obtained from the peripheral blood of volunteers donating stem cells for allotransplant. […] After incubation, cell lysates were prepared and the enzymatic activity of the proteasome measured as above.

The source of these data is patent publication US20110123617A1, “CLIOQUINOL FOR THE TREATMENT OF HEMATOLOGICAL MALIGNANCIES” (priority 2007, published 2011).

As usually defined, the IC50 is the concentration at which inhibition is half-maximal.

For the molecule `Oc1c(I)cc(Cl)c2cccnc12` [clioquinol, 5-chloro-7-iodo-8-hydroxyquinoline], the cell cycle arrest result in experiment [1] is on record as “arrested cells in the G1 phase”. Also, the “tumor progression (weight and volume of intraperitoneal tumor)” value in experiment [2] (100 mg/kg oral twice daily for 10 days) was “delayed tumor progression”. Further, in experiment [2] (in vivo mouse model of leukemia), the tumor weight entry is on record as “dramatically reduces tumor weight”. Besides, in experiment [3], the “chymotrypsin-like activity of the proteasome” value was “inhibited chymotrypsin-like activity at low micromolar concentrations”. In addition, the half-inhibitory concentration (IC50) with myeloma cell lines is < 20 µM. In addition, in experiment [4], the “enzymatic activity of the proteasome” value is recorded as “inhibited the proteasome”.
